Reference: US7671054B1, “Reverse-turn mimetics and method relating thereto” (Choongwae Pharma Corporation, priority 2001, dated 2010)
≈ marks a conversion by molar mass, not a printed value.

What was measured:
Format in all cases: cell-based
[1] = Sulforhodamine B (SRB) assay; settings: human, 293 cells (renal), 293, Renal, read-out: GI50 (SRB in vitro cytotoxicity)
Method: (§1) Growth inhibitory effect of Compound A on the cells listed below was measured by the sulforhodamine B assay. SW480 cells in 100 μl media were plated in each well of 96-well plate and allowed to attach for 24 hours. Compound A was added to the wells to produce the desired final concentrations, and the plates were incubated at 37° C. for 48 hours. The cells were then fixed by gentle addition of 100 μl of cold (4° C.) 10% trichloroacetic acid to each well, followed by incubation at 4° C. for 1 hour. Plates were washed with deionized water five times and allowed to air dry. The cells were then stained by addition of 100 μl SRB solution (0.4% SRB(w/v) in 1% acetic acid (v/v)) to wells for 15 min. After staining, the plates were quickly washed five times with 1% acetic acid to remove any unbound dye, and allowed to air dry. Bound dye was solubilized with 10 mmol/L Tris base (pH 10.5) prior to reading the plates. The optical density (OD) was read on a plate reader at a wavelength of 515 nm with Molecular Device. Inhibition of growth was expressed as relative viability (% of control) and GI50 was calculated from concentration-response curves after log/probit transformation.

786-0 = test: Sulforhodamine B (SRB) assay; settings: Homo sapiens; 786-0, listed under Colon; 48 hours; read-out: GI50 (SRB in vitro cytotoxicity)
Method: as §1

A253 = test: Sulforhodamine B (SRB) assay; settings: Homo sapiens; A253, Melanoma; 48 hours; read-out: GI50 (SRB in vitro cytotoxicity)
Method: as §1

A431 = test: Sulforhodamine B (SRB) assay; settings: Homo sapiens, A-431; A431, Melanoma; 48 hours; read-out: GI50 (SRB in vitro cytotoxicity)
Method: as §1

A549 = test: Sulforhodamine B (SRB) assay; settings: Homo sapiens; A549, Lung; 48 hours; read-out: GI50 (SRB in vitro cytotoxicity)
Method: as §1

ACHN = test: Sulforhodamine B (SRB) assay; settings: Homo sapiens, Renal, 48 hours, read-out: GI50 (SRB in vitro cytotoxicity)
Method: as §1

CACO-2 = test: Sulforhodamine B (SRB) assay; settings: Homo sapiens; CACO-2, Colon; 48 hours; read-out: GI50 (SRB in vitro cytotoxicity)
Method: as §1

CRL1579 = test: Sulforhodamine B (SRB) assay; settings: CRL1579, Melanoma; 48 hours; read-out: GI50 (SRB in vitro cytotoxicity)
Method: as §1

HCC2998 = test: Sulforhodamine B (SRB) assay; settings: Homo sapiens, HCC 2998; HCC2998, Colon; 48 hours; read-out: GI50 (SRB in vitro cytotoxicity)
Method: as §1

HCT116 = test: Sulforhodamine B (SRB) assay; settings: Homo sapiens, HCT-116; HCT116, Colon; 48 hours; read-out: GI50 (SRB in vitro cytotoxicity)
Method: as §1

HCT15 = test: Sulforhodamine B (SRB) assay; settings: Homo sapiens, HCT-15; HCT15, Colon; 48 hours; read-out: GI50 (SRB in vitro cytotoxicity)
Method: as §1

HMV-II = test: Sulforhodamine B (SRB) assay; settings: Melanoma, 48 hours, read-out: GI50 (SRB in vitro cytotoxicity)
Method: as §1

HMV-I = test: Sulforhodamine B (SRB) assay; settings: Melanoma, 48 hours, read-out: GI50 (SRB in vitro cytotoxicity)
Method: as §1

HT1080 = test: Sulforhodamine B (SRB) assay; settings: Homo sapiens, HT-1080; HT1080, listed under Prostate; 48 hours; read-out: GI50 (SRB in vitro cytotoxicity)
Method: as §1

HT29 = test: Sulforhodamine B (SRB) assay; settings: Homo sapiens, HT-29; HT29, Colon; 48 hours; read-out: GI50 (SRB in vitro cytotoxicity)
Method: as §1

K562/ADR = test: Sulforhodamine B (SRB) assay; settings: Homo sapiens, Leukemia, 48 hours, read-out: GI50 (SRB in vitro cytotoxicity)
Method: as §1

K562/VIN = test: Sulforhodamine B (SRB) assay; settings: Homo sapiens, Leukemia, 48 hours, read-out: GI50 (SRB in vitro cytotoxicity)
Method: as §1

LOVO = test: Sulforhodamine B (SRB) assay; settings: Homo sapiens, Colon, 48 hours, read-out: GI50 (SRB in vitro cytotoxicity)
Method: as §1

LOX-IMVI = test: Sulforhodamine B (SRB) assay; settings: Homo sapiens, Melanoma, 48 hours, read-out: GI50 (SRB in vitro cytotoxicity)
Method: as §1

M14 = test: Sulforhodamine B (SRB) assay; settings: Homo sapiens; M14, Melanoma; 48 hours; read-out: GI50 (SRB in vitro cytotoxicity)
Method: as §1

MCF7/ADR = test: Sulforhodamine B (SRB) assay; settings: Homo sapiens, NCI/ADR-RES, Breast, 48 hours, read-out: GI50 (SRB in vitro cytotoxicity)
Method: as §1

NCI H460 = test: Sulforhodamine B (SRB) assay; settings: Homo sapiens; NCI H460, Lung; 48 hours; read-out: GI50 (SRB in vitro cytotoxicity)
Method: as §1

RPM17951 = test: Sulforhodamine B (SRB) assay; settings: RPM17951, Melanoma; 48 hours; read-out: GI50 (SRB in vitro cytotoxicity)
Method: as §1

SK-MEL-28 = test: Sulforhodamine B (SRB) assay; settings: Homo sapiens; SK-MEL-28, Melanoma; 48 hours; read-out: GI50 (SRB in vitro cytotoxicity)
Method: as §1

SK-MEL-5 = test: Sulforhodamine B (SRB) assay; settings: Homo sapiens; SK-MEL-5, Melanoma; 48 hours; read-out: GI50 (SRB in vitro cytotoxicity)
Method: as §1

SW480-CWP = test: Sulforhodamine B (SRB) assay; settings: Colon, 48 hours, read-out: GI50 (SRB in vitro cytotoxicity)
Method: as §1

SW480-Kribb = test: Sulforhodamine B (SRB) assay; settings: Colon, 48 hours, read-out: GI50 (SRB in vitro cytotoxicity)
Method: as §1

UACC62 = test: Sulforhodamine B (SRB) assay; settings: Homo sapiens, UACC-62; UACC62, Melanoma; 48 hours; read-out: GI50 (SRB in vitro cytotoxicity)
Method: as §1

## O=c1[nH]cc(F)c(=O)[nH]1 [Compound 5-FU, 5-fluorouracil]
[1]
  GI50 at 48 h: 2.02 µg/mL (≈ 15.5 µM)
786-0
  GI50: 0.584 µg/mL (≈ 4.49 µM)
A253
  GI50: 2.93 µg/mL (≈ 22.5 µM)
A431
  GI50: 0.404 µg/mL (≈ 3.11 µM)
A549
  GI50: 1.01 µg/mL (≈ 7.74 µM)
ACHN
  GI50: 5.06 µg/mL (≈ 38.9 µM)
CACO-2
  GI50: 0.451 µg/mL (≈ 3.47 µM)
CRL1579
  GI50: > 10 µg/mL
HCC2998
  GI50: 5.49 µg/mL (≈ 42.2 µM)
HCT116
  GI50: 1.04 µg/mL (≈ 7.99 µM)
HCT15
  GI50: 1.18 µg/mL (≈ 9.06 µM)
HMV-II
  GI50: 0.695 µg/mL (≈ 5.34 µM)
HMV-I
  GI50: 2.11 µg/mL (≈ 16.2 µM)
HT1080
  GI50: 0.798 µg/mL (≈ 6.13 µM)
HT29
  GI50: 5.33 µg/mL (≈ 41 µM)
K562/ADR
  GI50: > 10 µg/mL
K562/VIN
  GI50: 7.07 µg/mL (≈ 54.4 µM)
LOVO
  GI50: 1.03 µg/mL (≈ 7.91 µM)
LOX-IMVI
  GI50: > 10 µg/mL
M14
  GI50: 1.23 µg/mL (≈ 9.42 µM)
MCF7/ADR
  GI50: > 10 µg/mL
NCI H460
  GI50: 1.4 µg/mL (≈ 10.7 µM)
RPM17951
  GI50: 0.92 µg/mL (≈ 7.07 µM)
SK-MEL-28
  GI50: > 10 µg/mL
SK-MEL-5
  GI50: 2.43 µg/mL (≈ 18.7 µM)
SW480-CWP
  GI50: > 10 µg/mL
SW480-Kribb
  GI50: > 10 µg/mL
UACC62
  GI50: 1.09 µg/mL (≈ 8.4 µM)
